Here are results for 21 molecules from ChEMBL document CHEMBL1136246, “Structure activity studies of a novel cytotoxic benzodiazepine” (Bioorg Med Chem Lett, 2003).

Usually Inhibition stands for the change of the read-out against control, counted positive when it falls. The term EC50 denotes the concentration at which the effect is half-maximal. Low readings indicate greater potency, high ones weaker potency.

The structures appear in SMILES notation. Some results are limits rather than exact numbers.

Assay [1] deals with Ramos. The assay is described as follows: Inhibition of Ramos B cells death in the presence of 20 uM methylating phenol (Compound 20). It is filed as functional, Homo sapiens.
Assay [2] has as its system Ramos. The assay is described as follows: Inhibition of Ramos B cells death in the presence of FK506 (1 uM). It counts as functional, Homo sapiens.
Assay [3] has as its system Ramos. In words: Lymphotoxic activity against immortalized Ramos B cells in culture. It counts as functional, cell-based. Particulars: Homo sapiens.

For the molecule `CN1C(=O)C(Cc2cccc(-c3ccccc3)c2)N=C(c2ccc(O)cc2)c2cc(Cl)ccc21` (stereo unspecified), the Inhibition in assay [1] is given as 81%; in assay [2], 77%. For the same molecule, in assay [3], the EC50 is 4 µM.

As for `Cc1ccc(C)c(CC2N=C(c3ccc(O)cc3)c3cc(Cl)ccc3N(C)C2=O)c1` (stereo unspecified), the Inhibition in assay [1] is given as 23%; in assay [2] it was 80%. In assay [3], this molecule gave an EC50 of 7 µM.

For `CN1C(=O)C(Cc2ccc(-c3ccccc3)cc2)N=C(c2ccc(O)cc2)c2cc(Cl)ccc21` (stereo unspecified), the figures for the Inhibition in assay [1] and in assay [2] were 69% and 74%, respectively. Further, the EC50 in assay [3] came to 7 µM.

As to `CN1C(=O)C(Cc2cccc3ccccc23)N=C(c2ccc(O)cc2)c2cc(Cl)ccc21` (stereo unspecified), the figures for the Inhibition in assay [1] and in assay [2] were 67% and 72%, respectively. In addition, the concentration for a half-maximal effect (EC50) in assay [3] was 5 µM.

Take `CN1C(=O)C(Cc2ccc(F)c(F)c2)N=C(c2ccc(O)cc2)c2cc(Cl)ccc21` (stereo unspecified): the Inhibition is 0% in assay [1] and 59% in assay [2]. Also, the EC50 in assay [3] is 10 µM.

Regarding `CN1C(=O)C(Cc2ccc3ccccc3c2)N=C(c2cccc(O)c2)c2cc(Cl)ccc21` (stereo unspecified), the values for the Inhibition in assay [1] and in assay [2] were 0% and 70%, respectively. The molecule also came in with an EC50 in assay [3] of 6 µM.

For the molecule `CN1C(=O)C(Cc2cc3ccccc3cn2)N=C(c2ccc(O)cc2)c2cc(Cl)ccc21` (stereo unspecified), the results for the Inhibition in assay [1] and in assay [2] were 0% and 42%, respectively. Also, a half-maximal effect in assay [3] (EC50) was put at 10 µM.

Turning to `CN1C(=O)C(Cc2ccc3ncccc3c2)N=C(c2ccc(O)cc2)c2cc(Cl)ccc21` (stereo unspecified), the values for the Inhibition in assay [1] and in assay [2] were 0% and 20%, respectively. Besides, the response in assay [3] was half-maximal at 13 µM (EC50).

With `CN1C(=O)C(Cc2ccc(OC(F)(F)F)cc2)N=C(c2ccc(O)cc2)c2cc(Cl)ccc21` (stereo unspecified), the Inhibition worked out at 0% in assay [1] and 17% in assay [2]. Also, a half-maximal effect in assay [3] (EC50) was put at 30 µM.

With `CN1C(=O)C(Cc2cccc(O)c2)N=C(c2ccc(O)cc2)c2cc(Cl)ccc21` (stereo unspecified), the Inhibition was 20% in assay [1] and 14% in assay [2]. Moreover, the EC50 in assay [3] worked out at 22 µM.

As to `CN1C(=O)C(Cc2ccccc2)N=C(c2ccc(O)cc2)c2cc(Cl)ccc21` (stereo unspecified), the Inhibition stood at 0% in assay [1] and 4% in assay [2]. The EC50 in assay [3] worked out at 12 µM.

With `CN1C(=O)C(Cc2cnc3ccccc3c2)N=C(c2ccc(O)cc2)c2cc(Cl)ccc21` (stereo unspecified), the Inhibition worked out at 4% in assay [1] and 39% in assay [2]. The EC50 in assay [3] was 11 µM.

Take `CN1C(=O)C(Cc2ccc(C(C)(C)C)cc2)N=C(c2ccc(O)cc2)c2cc(Cl)ccc21` (stereo unspecified): the Inhibition in assay [1] was 55%; in assay [2], 91%. The same molecule gave an EC50 in assay [3] of 3 µM.

Regarding `COc1ccc(C2=NC(Cc3ccc4ccccc4c3)C(=O)N(C)c3ccc(Cl)cc32)cc1` (stereo unspecified), the EC50 in assay [3] is greater than 80 µM.

For the molecule `CN1C(=O)C(Cc2ccc3ccccc3c2)N=C(c2ccc(Cl)cc2)c2cc(Cl)ccc21` (stereo unspecified), the EC50 in assay [3] was greater than 80 µM.

Turning to `Cc1cc(C2=NC(Cc3ccc4ccccc4c3)C(=O)N(C)c3ccc(Cl)cc32)ccc1O` (stereo unspecified), the figures for the Inhibition in assay [1] and in assay [2] were 87% and 78%, respectively. Moreover, in assay [3], the EC50 is 3 µM.

The molecule `CN1C(=O)C(Cc2ccc3ccccc3c2)N=C(c2ccc(N=[N+]=[N-])cc2)c2cc(Cl)ccc21` (stereo unspecified) returned an EC50 in assay [3] greater than 80 µM.

Take `Cc1ccc(CC2N=C(c3ccc(O)cc3)c3cc(Cl)ccc3N(C)C2=O)cc1C` (stereo unspecified): the Inhibition amounted to 29% in assay [1] and 78% in assay [2]. Besides, the EC50 in assay [3] came out at 7 µM.

`CN1C(=O)CN=C(c2ccccc2)c2cc(Cl)ccc21` [DIAZEPAM] yielded an EC50 in assay [3] greater than 80 µM.

In assay [3], `CCC(C)N(C)C(=O)c1cc2ccccc2c(-c2ccccc2Cl)n1` (stereo unspecified) [PK-11195] registered an EC50 greater than 80 µM.

`CN1C(=O)CN=C(c2ccc(Cl)cc2)c2cc(Cl)ccc21` [RO-54864] had an EC50 in assay [3] greater than 80 µM.
